Test results: patent US6590083B1, “Ketolide antibacterials” (Ortho-McNeil Pharmaceutical, Inc., priority 1999, dated 2003)
≈ marks a conversion by molar mass, not a printed value.

Key:
Assay in all cases: In vitro susceptibility testing, MIC by NCCLS broth microdilution
E. coli OC2605 = format: cell-based; details: CAMHB, 35° C., 16-20 h
Experimental: (§1) Minimum inhibitory concentrations (“MICs”) were determined by the NCCLS broth microdilution procedure for susceptibility testing for bacteria that grow aerobically (National Committee for Clinical Laboratory Standards, 1997. Methods for dilution antimicrobial Susceptibility tests for bacteria that grow aerobically, 4th ed. Approved standard. NCCLS Document M7-A4. National Committee for Clinical Laboratory Standards, Villanova, Pa.). stock solutions were prepared on the day of the test and appropriate aliquots were added to cation adjusted Mueller-Hinton broth (CAMHB) or Haemophilus test media. Two-fold serial dilutions were prepared and added to wells in microtiter plates. Final test concentrations ranged from 16 to 0.015 μg/ml. Broth cultures of bacteria inoculated from growth on overnight plates for all test bacteria except Streptococcus pneumoniae and Haemophilus influenzae were incubated at 35° C. and then adjusted to the Kirby Bauer standard and diluted in CAMHB to achieve a final inoculum concentration of approximately 5×10^5 CFU/ml. Inocula for S. pneumoniae and H. influenzae were prepared by directly suspending colonies from an overnight plate, adjusting the turbidity and diluting as above. S. pneumoniae media was supplemented with 2.5% lysed horse blood. All plates were incubated in ambient air at 35° C. for […] for S. peteumoniae and Haemophilus influenzae and 16-20 h for all other bacteria.

E. faecalis ATCC29212 = format: cell-based; details: CAMHB, 35° C., 16-20 h
Experimental: as §1

S. aureus ATCC29213 = format: cell-based; details: CAMHB, 35° C., 16-20 h
Experimental: as §1

S. pneumoniae ATCC49619 = format: cell-based, Streptococcus pneumoniae; details: media with 2.5% lysed horse blood, 35° C.
Experimental: (§2) Minimum inhibitory concentrations (“MICs”) were determined by the NCCLS broth microdilution procedure for susceptibility testing for bacteria that grow aerobically (National Committee for Clinical Laboratory Standards, 1997. Methods for dilution antimicrobial Susceptibility tests for bacteria that grow aerobically, 4th ed. Approved standard. NCCLS Document M7-A4. National Committee for Clinical Laboratory Standards, Villanova, Pa.). stock solutions were prepared on the day of the test and appropriate aliquots were added to cation adjusted Mueller-Hinton broth (CAMHB) or Haemophilus test media. Two-fold serial dilutions were prepared and added to wells in microtiter plates. Final test concentrations ranged from 16 to 0.015 μg/ml. Broth cultures of bacteria inoculated from growth on overnight plates for all test bacteria except Streptococcus pneumoniae and Haemophilus influenzae were incubated at 35° C. and then adjusted to the Kirby Bauer standard and diluted in CAMHB to achieve a final inoculum concentration of approximately 5×10^5 CFU/ml. Inocula for S. pneumoniae and H. influenzae were prepared by directly suspending colonies from an overnight plate, adjusting the turbidity and diluting as above. S. pneumoniae media was supplemented with 2.5% lysed horse blood. […]

H. influenzae OC4883 = format: cell-based, Haemophilus influenzae; details: Haemophilus test media, 35° C.
Experimental: as §2

CC[C@H]1OC(=O)[C@H](C)[C@@H](O[C@H]2C[C@@](C)(OC)[C@@H](O)[C@H](C)O2)[C@H](C)[C@@H](O[C@@H]2O[C@H](C)C[C@H](N(C)C)[C@H]2O)[C@](C)(O)C[C@@H](C)C(=O)[C@H](C)[C@@H](O)[C@]1(C)O [Erythromycin]
MIC (E. coli OC2605; Escherichia coli, OC2605, Table 3, Table 2 compounds): > 16 µg/mL | In Vitro Susceptibility (MIC) E. coli OC2605 (E. coli OC2605; Table 4, Formula III compounds): >16 µg/mL | MIC (E. faecalis ATCC29212; Enterococcus faecalis, ATCC29212, Table 3, Table 2 compounds): 1 µg/mL (≈ 1.36 µM) | In Vitro Susceptibility (MIC) E. faecalis ATCC29212 (E. faecalis ATCC29212; Table 4, Formula III compounds): 1 µg/mL | MIC (S. aureus ATCC29213; Staphylococcus aureus, ATCC29213, Table 3, Table 2 compounds): 0.5 µg/mL (≈ 0.681 µM) | In Vitro Susceptibility (MIC) S. aureus ATCC29213 (S. aureus ATCC29213; Table 4, Formula III compounds): 0.5 µg/mL | MIC (S. pneumoniae ATCC49619; Streptococcus pneumoniae, ATCC49619, Table 3, Table 2 compounds): 0.06 µg/mL (≈ 0.0818 µM) | In Vitro Susceptibility (MIC) S. pneumoniae ATCC49619 (S. pneumoniae ATCC49619; Table 4, Formula III compounds): 0.06 µg/mL | MIC (H. influenzae OC4883; Haemophilus influenzae, OC4883, Table 3, Table 2 compounds): 1 µg/mL (≈ 1.36 µM) | In Vitro Susceptibility (MIC) H. influenzae OC4883 (H. influenzae OC4883; Table 4, Formula III compounds): 1 µg/mL
